Data taken from patent US9879029B2, “ERK inhibitors” (Eli Lilly and Company, priority 2014, dated 2018).

Experiments:
CALU-6 = test: Xenograft tumor model CALU-6; assay type: in vivo; details: oral
[1] = tested on: human pancreatic cancer cells MIA PACA-2; test: Xenograft tumor model MIA PACA-2; assay type: in vivo, female CB-17 SCID mice; details: oral, p <0.001
Procedure: (§1) The purpose of this assay is to measure reduction in tumor volume in response to test compound administration. Expand human colorectal cancer cells HCT116 (ATCC, #CCL-247) or human non-small cell lung cancer cells NCI-H358 (ATCC, # CRL-5807) in culture, harvest and inject 5×10e^6 cells in 200 μL of 1:1 HBSS+matrigel solution subcutaneously on to the rear right flank of female athymic nude mice (22-25 gm, Harlan Laboratories). Expand human pancreatic cancer cells SW1990 (ATCC, # CRL-2172) in culture, harvest and inject 2×10e^6 cells in 200 μL of 1:1 HBSS+matrigel solution subcutaneously on to the rear right flank of female athymic nude mice (22-25 gm, Harlan Laboratories). Expand human pancreatic cancer cells MIA PACA-2 (ATCC, # CRL-1420) or human non-small cell lung cancer cells A549 (ATCC, # CCl-185) in culture, harvest and inject 5×10e^6 cells in 200 μL of 1:1 HBSS+matrigel solution subcutaneously on to the rear right flank of female CB-17 SCID mice (22-25 gm, Charles River Laboratories International Inc.). Expand human melanoma cells A-375 (ATCC, # CRL-1619) in culture, harvest and inject 5×10e^6 cells in 200 μL of 1:1 HBSS+matrigel solution subcutaneously on to the rear right flank of female NIH nude rats (140-160 gm, Taconic Farms). Measure tumor growth and body weight twice per week beginning the seventh day after the implantation. When tumor sizes reach 200-400 mm^3, randomize animals and group into groups of eight to ten animals. Prepare test compound in an appropriate vehicle (vehicle: 1% HEC/0.25% Tween 80/0.05% Antifoam) and administer by oral gavage for 14 to 28 days. Tumor response is determined by tumor volume measurement performed twice a week during the course of treatment.

[2] = tested on: human colorectal cancer cells HCT116; test: Xenograft tumor model HCT116; assay type: in vivo, female athymic nude mice; details: oral
Procedure: as §1

With `COCCN1C(=O)c2cc(-c3ccnc(Nc4ccnn4C)c3)sc2C1(C)C` [Example 1, 5-(2-Methoxyethyl)-6,6-dimethyl-2-{2-[(1-methyl-1H-pyrazol-5-yl)amino]pyridin-4-yl}-5,6-dihydro-4H-thieno[2,3-c]pyrrol-4-one] the “Delta T/C (%)” value (CALU-6; CALU-6, 10 mg/kg BID, p 0.013) was 44%, the “Regression (%)” value (CALU-6; CALU-6, 25 mg/kg BID, p <0.001) was −10% and the “Delta T/C (%)” value (CALU-6; CALU-6, 25 mg/kg QD, p 0.010) was 46%. The “Regression (%)” value (CALU-6; CALU-6, 50 mg/kg BID, p <0.001) was −75%, the “Delta T/C (%)” value (CALU-6; CALU-6, 50 mg/kg QD, p <0.001) was 92% and the “Regression (%)” value (CALU-6; CALU-6, 75 mg/kg QD, p <0.001) was −38%. The “Delta T/C (%)” value ([1]; MIA PACA-2, 10 mg/kg BID) was 76%, the “Regression (%)” value ([1]; MIA PACA-2, 25 mg/kg BID) was −15% and the “Delta T/C (%)” value ([1]; MIA PACA-2, 25 mg/kg QD) was 74%. For the same compound, the “Regression (%)” value ([1]; MIA PACA-2, 50 mg/kg BID) was −72%, the “Delta T/C (%)” value ([1]; MIA PACA-2, 50 mg/kg QD) was 97% and the “Regression (%)” value ([1]; MIA PACA-2, 75 mg/kg QD) was −39%. The “Delta T/C (%)” value ([2]; HCT116, 10 mg/kg BID, p 0.023) was 55%, the “Delta T/C (%)” value ([2]; HCT116, 25 mg/kg BID, p <0.001) was 89% and the “Regression (%)” value ([2]; HCT116, 50 mg/kg BID, p <0.001) was −31%. For the same compound, the “Delta T/C (%)” value ([2]; HCT116, 50 mg/kg QD, p <0.001) was 83% and the “Delta T/C (%)” value ([2]; HCT116, 75 mg/kg QD, p <0.001) was 98%.
